Data on 1 compound can be found in patent US20200352912A1, “ANTIMICROBIAL COMPOSITIONS AND METHODS OF USING THE SAME” (The Board Of Supervisors Of Louisiana State University And …, priority 2018, published 2020).

Each structure is given as a SMILES string.

In assay [1] the test system is clinical MRSA and MSSA strains isolated from a patient's catheter. Put plainly: planktonic antimicrobial assay, clinical isolates. The assay is classed as cell-based, Staphylococcus aureus. On the procedure: Effect of COX enzyme inhibitors or PGE2 EP receptor antagonists on microbial growth. The antimicrobial activity of selective COX enzyme inhibitor or PGE2 EP receptor antagonist on the growth of C. albicans DAY185 (A), S. aureus NRS383 (B) and MRSA and MSSA clinical isolates (C). Growth of C. albicans and S. aureus was monitored for up to 24 h in medium alone or supplemented with DMSO or EP receptor antagonists or COX enzyme inhibitor at physiologically relevant concentrations. Data shown are representative of three independent experiments.
Strains and growth conditions. The methicillin-resistant S. aureus strain NRS383 used in all experiments was obtained from the Network on Antimicrobial Resistance in S. aureus (NARSA) data bank. NRS383 is positive for the toxic shock syndrome toxin (tst) and 6-toxin genes. SJ-MRSA 6 and SJ-SA5 are methicillin-resistant (MRSA) and methicillin-sensitive (MSSA) clinical S. aureus strains respectively isolated from a patient's catheter. […]
C. albicans and S. aureus were grown as described above. […] Cells were grown with shaking as described above, and 1 ml aliquots were removed each hour in duplicate and optical density at 600 nm measured (OD600) by spectrophotometer (Biomate 3S, Thermo Scientific).

The target in assay [2] is IP (Homo sapiens, UniProt P43119). The following applies: cited from earlier work.
Chain of IP (P43119 whole entry): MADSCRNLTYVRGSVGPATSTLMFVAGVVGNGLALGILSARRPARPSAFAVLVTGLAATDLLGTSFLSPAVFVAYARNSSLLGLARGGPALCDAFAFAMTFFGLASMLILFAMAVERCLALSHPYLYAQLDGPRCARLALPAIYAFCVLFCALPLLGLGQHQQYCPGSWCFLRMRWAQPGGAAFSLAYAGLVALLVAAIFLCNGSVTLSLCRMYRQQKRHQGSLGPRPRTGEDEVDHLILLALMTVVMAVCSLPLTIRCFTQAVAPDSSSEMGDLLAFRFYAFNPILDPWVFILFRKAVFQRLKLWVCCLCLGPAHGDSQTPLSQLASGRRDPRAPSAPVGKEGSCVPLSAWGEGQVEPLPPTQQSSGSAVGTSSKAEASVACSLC
The subject of assay [3] is C. albicans and S. aureus. Kind of assay: mouse C. albicans-S. aureus polymicrobial intra-abdominal infection. It is filed as in vivo, mice. Conditions: 10 mg/kg. On the procedure: Effect of inhibition of EP4 receptor signaling on survival. Mice received either vehicle or EP4 receptor antagonist at a dose of 10 mg/kg by i.p. injection as indicated in Materials and Methods. Mortality was assessed using Kaplan Meier test (***P<0.001; n=20/group) compared to control groups. Data shown are representative of three replicate experiments.
The mouse peritonitis/intra-abdominal model was performed as previously described (8). In brief, for MRSA peritonitis, mice were injected intraperitoneally (i.p.) with 4×10^6 CFU or 5×10^6 CFU or 2×10^7 CFU of S. aureus in 0.2 ml of PBS containing 3% hog gastric mucin type III (Sigma Aldrich). Mice injected i.p. with 0.2 ml of mucin/PBS served as a negative infection control. For the intra-abdominal infection with C. albicans and S. aureus, mice were injected i.p. with 7×10^6 CFU of C. albicans and 8×10^7 CFU of S. aureus (8.7×10^7 CFU total) in 0.2 ml of PBS. After inoculation, mice were observed over 10 days for signs of morbidity (hunched posture, inactivity, lethargy, and ruffled fur) and mortality. […] In the MRSA peritonitis experiments, mice were sacrificed at 24 or 48 h post-inoculation to assess microbial burden. Peritoneal cavities were lavaged by injection of 2 ml of sterile PBS followed by gentle massaging of the peritoneal cavity. Peritoneal lavage fluid then was removed using a pipette inserted into a small incision in the abdominal cavity. Spleens were removed, weighed, and mechanically homogenized prior to CFU analysis. Microbial burdens in the peritoneal lavage fluid and spleen were enumerated as described above.
Each inhibitor was prepared fresh as a concentrated stock (20-25 mg/ml) in DMSO and diluted to a working concentration of […] in sterile PBS (final DMSO concentration, 2.3%). A sham treatment containing only 2.3% DMSO in PBS was also prepared. For the MRSA peritonitis study, the EP4 receptor antagonist was administered 2 h after S. aureus inoculation and once daily thereafter until day 4 post inoculation. For the IAI co-infection study, COX inhibitor or vehicle control was administered 4 h prior to and 4 and 8 h after inoculation with C. albicans and S. aureus while the EP receptor antagonists were administered daily starting 1 day prior to and 5 days after infection. All other procedures were performed as described above. Control groups received the vehicle at the same dose interval.
In a final set of experiments, we evaluated the ability of L-161, 982 to reduce lethality in co-infected mice. Mice co-inoculated with the standard 7×106 C. albicans CFU and 8×107 S. aureus CFU (8.7×10^7 CFU total) were treated with L-161, 982 (10 mg/kg) 2 h post infection and once daily afterwards until day 5. […]

By Ki is commonly meant the dissociation constant of the complex between target and ligand, obtained from inhibition or displacement. Consider `CCCCc1nn(-c2ccccc2C(F)(F)F)c(=O)n1Cc1ccc(-c2ccccc2S(=O)(=O)NC(=O)c2sccc2C)cc1` [L-161, 982, N-[[4′-[[3-Butyl-1,5-dihydro-5-oxo-1-[2-(trifluoromethyl)phenyl]-4H-1,2,4-triazol-4-yl]methyl][1,1′-biphenyl]-2-yl]sulfonyl]-3-methyl-2-thiophenecarboxamide], for which the “growth of clinical MRSA and MSSA strains” value in assay [1] is “inhibited growth”. Further, in assay [2], the Ki is 6.7 µM. Also, the “survival enhanced by” value in assay [3] is given as 40%. Moreover, in assay [3] (vehicle control 10), the survival came to 50%.
